A value given as a limit tells only on which side of the number the result lay.

Common to all, as to format: functional
Experiment [1] concerns Panel NCI-60 (60 carcinoma cell lines). Kind of experiment: Cytotoxicity against human Panel NCI-60 (60 carcinoma cell lines) assessed as cell growth at 10 uM after 48 hrs by sulforhodamine B assay relative to control. To be noted: read-out: Activity. (In general: The SRB assay estimates cell density from bound dye.)
The next experiment concerns leukaemia cell line. Kind of experiment: Cytotoxicity against human leukaemia cell line assessed as cell growth inhibition measured after 48 hrs by sulforhodamine B assay. To be noted: for CC50: read-out: LC50 (the source's name).
In experiment [2] the test system is Panel NCI-60 (60 carcinoma cell lines). Nature of the experiment: Cytotoxicity against human Panel NCI-60 (60 carcinoma cell lines) assessed as cell growth inhibition measured after 48 hrs by sulforhodamine B assay.

For `Cc1cc(NS(=O)(=O)c2ccc(-c3cnc(C4CC4)o3)cc2)ccc1I`, in experiment [1], the growth at 10 µM was 35.9%.

Regarding `Cc1ccc(NS(=O)(=O)c2ccc(-c3cnc(C4CC4)o3)cc2)cc1C(F)(F)F`, the growth at 10 µM in experiment [1] was 60.5%.

Take `COc1ccc(NS(=O)(=O)c2ccc(-c3cnc(C4CC4)o3)cc2)cc1`: in experiment [1], the growth at 10 µM amounted to 56.1%.

`O=S(=O)(Nc1ccc(OC(F)F)cc1)c1ccc(-c2cnc(C3CC3)o2)cc1`: the growth at 10 µM in experiment [1] was found to be 63.1%.

`CC(=O)c1ccc(NS(=O)(=O)c2ccc(-c3cnc(C4CC4)o3)cc2)cc1`: in experiment [1], the growth at 10 µM was found to be 93.5%.

Turning to `COc1ccc(NS(=O)(=O)c2ccc(-c3cnc(C4CC4)o3)cc2)cc1Cl`, the growth at 10 µM in experiment [1] was found to be 32.6%.

Take `O=S(=O)(Nc1ccc(F)cc1F)c1ccc(-c2cnc(C3CC3)o2)cc1`: the growth at 10 µM in experiment [1] amounted to 29.1%. Further, in the experiment on leukaemia cell line, the GI50 (as a rule, the concentration giving 50% growth inhibition) came to 0.356 µM; the concentration for total growth inhibition (TGI) (as a rule, the concentration at which net growth stops) was found to be 66 µM; the CC50 was greater than 100 µM.

Take `O=S(=O)(Nc1ccc2c(c1)OCO2)c1ccc(-c2cnc(C3CC3)o2)cc1`: the growth at 10 µM in experiment [1] is 35.8%.

Turning to `O=S(=O)(Nc1ccc(I)cc1)c1ccc(-c2cnc(C3CC3)o2)cc1`, the growth at 10 µM in experiment [1] was found to be 57.3%.

For `COc1cc(NS(=O)(=O)c2ccc(-c3cnc(C4CC4)o3)cc2)ccc1F`, the growth at 10 µM in experiment [1] amounted to 25.9%. Further, in the experiment with leukaemia cell line, the GI50 is 0.328 µM, the concentration for total growth inhibition (TGI) was found to be 75.7 µM and the CC50 is greater than 100 µM.

With `O=S(=O)(Nc1ccc(C(F)(F)F)cc1)c1ccc(-c2cnc(C3CC3)o2)cc1`, the growth at 10 µM in experiment [1] is 94.5%.

On to `Cc1cc(Cl)ccc1NS(=O)(=O)c1ccc(-c2cnc(C3CC3)o2)cc1`, for which the growth at 10 µM in experiment [1] stood at 24%. Also, in the experiment on leukaemia cell line, the GI50 worked out at 0.277 µM, the TGI came out at 54.7 µM and the CC50 is greater than 100 µM.

For the compound `O=S(=O)(Nc1cc(Cl)ccc1Cl)c1ccc(-c2cnc(C3CC3)o2)cc1`, the growth at 10 µM in experiment [1] was found to be 34.6%. Moreover, in the experiment with leukaemia cell line, the concentration for 50% growth inhibition (GI50) was 1.02 µM, the TGI was greater than 100 µM and the CC50 is greater than 100 µM.

As for `N#Cc1ccc(NS(=O)(=O)c2ccc(-c3cnc(C4CC4)o3)cc2)cc1`, the growth at 10 µM in experiment [1] amounted to 95.7%.

On to `O=S(=O)(Nc1ccc(F)c(Cl)c1)c1ccc(-c2cnc(C3CC3)o2)cc1`, for which, in experiment [1], the growth at 10 µM is 23%. Further, in the experiment with leukaemia cell line, the GI50 was 0.26 µM, the TGI is 73.7 µM and the CC50 is greater than 100 µM.

In the case of `O=S(=O)(Nc1cccc(Cl)c1)c1ccc(-c2cnc(C3CC3)o2)cc1`, the growth at 10 µM in experiment [1] worked out at 24.2%. For the same compound, in the experiment with leukaemia cell line, the GI50 worked out at 0.477 µM, the TGI came to 54.2 µM and the CC50 was greater than 100 µM.

For the compound `Cc1ccc(NS(=O)(=O)c2ccc(-c3cnc(C4CC4)o3)cc2)cc1C`, the growth at 10 µM in experiment [1] was determined as 22.8%. In the experiment with leukaemia cell line, the GI50 amounted to 0.42 µM, the concentration for total growth inhibition (TGI) is greater than 100 µM and the CC50 is greater than 100 µM.

As for `O=S(=O)(Nc1cccc2ccccc12)c1ccc(-c2cnc(C3CC3)o2)cc1`, in experiment [1], the growth at 10 µM was 28.6%. Besides, in the experiment with leukaemia cell line, the GI50 turned out to be 0.0447 µM, the TGI was 22.5 µM and the CC50 was greater than 100 µM.

With `O=S(=O)(Nc1cc(Cl)c(F)c(Cl)c1)c1ccc(-c2cnc(C3CC3)o2)cc1`, the growth at 10 µM in experiment [1] turned out to be 37.1%.

Take `O=S(=O)(Nc1ccc(C(F)(F)F)c(Cl)c1)c1ccc(-c2cnc(C3CC3)o2)cc1`: in experiment [1], the growth at 10 µM came to 77.1%.

With `O=S(=O)(Nc1ccccc1Cl)c1ccc(-c2cnc(C3CC3)o2)cc1`, in experiment [1], the growth at 10 µM is 27.4%. Moreover, in the experiment on leukaemia cell line, the 50% growth inhibitory concentration (GI50) is 0.429 µM, the TGI was determined as 49.7 µM and the CC50 is greater than 100 µM.

In the case of `CN(c1ccc(Cl)cc1)S(=O)(=O)c1ccc(-c2cnc(C3CC3)o2)cc1`, in experiment [1], the growth at 10 µM came to 30.6%.

Consider `Cc1cc(Cl)cc(NS(=O)(=O)c2ccc(-c3cnc(C4CC4)o3)cc2)c1`, for which, in experiment [1], the growth at 10 µM turned out to be 31.6%. Also, in the experiment with leukaemia cell line, the GI50 was 0.175 µM, the TGI was found to be 7.04 µM and the CC50 amounted to 84.9 µM.

Take `O=S(=O)(Nc1cc(F)cc(F)c1)c1ccc(-c2cnc(C3CC3)o2)cc1`: in experiment [1], the growth at 10 µM is 35.4%. For the same compound, in the experiment on leukaemia cell line, the 50% growth inhibitory concentration (GI50) amounted to 2.14 µM, the TGI worked out at 80 µM and the CC50 was greater than 100 µM.

In the case of `O=C1COCCN1c1ccc(NS(=O)(=O)c2ccc(-c3cnc(C4CC4)o3)cc2)cc1`, the growth at 10 µM in experiment [1] amounted to 96.7%.

Regarding `O=S(=O)(Nc1ccc(C2CC2)cc1)c1ccc(-c2cnc(C3CC3)o2)cc1`, in experiment [1], the growth at 10 µM worked out at 63.4%.

Consider `O=S(=O)(Nc1ccc(N2CCOCC2)c(F)c1)c1ccc(-c2cnc(C3CC3)o2)cc1`, for which the growth at 10 µM in experiment [1] was 92.2%.

Consider `Cc1cc(F)cc(NS(=O)(=O)c2ccc(-c3cnc(C4CC4)o3)cc2)c1`, for which the growth at 10 µM in experiment [1] is 28.1%. Also, in the experiment on leukaemia cell line, the GI50 was determined as 0.138 µM, the TGI worked out at 7.25 µM and the CC50 is 78 µM.

As for `O=S(=O)(Nc1cc(F)cc(Cl)c1)c1ccc(-c2cnc(C3CC3)o2)cc1`, the growth at 10 µM in experiment [1] was found to be 30.3%. Also, in the experiment with leukaemia cell line, the GI50 came to 1.44 µM, the TGI was determined as 77.5 µM and the CC50 was greater than 100 µM.

In the case of `Cc1ccc(Cl)c(NS(=O)(=O)c2ccc(-c3cnc(C4CC4)o3)cc2)c1`, in experiment [1], the growth at 10 µM was determined as 25.3%. Further, in the experiment with leukaemia cell line, the GI50 was found to be 0.0488 µM, the TGI came out at 52.8 µM and the CC50 is greater than 100 µM.

For the compound `O=S(=O)(Nc1ccc(Cl)c(F)c1)c1ccc(-c2cnc(C3CC3)o2)cc1`, the growth at 10 µM in experiment [1] was 23.8%. For the same compound, in the experiment on leukaemia cell line, the GI50 is 0.38 µM, the TGI amounted to 63 µM and the CC50 was greater than 100 µM.

In the case of `O=S(=O)(Nc1ccc(I)cc1Cl)c1ccc(-c2cnc(C3CC3)o2)cc1`, the growth at 10 µM in experiment [1] was 39.5%.

For the compound `O=S(=O)(Nc1ccc(I)c(Cl)c1)c1ccc(-c2cnc(C3CC3)o2)cc1`, in experiment [1], the growth at 10 µM is 29.8%. In addition, in the experiment with leukaemia cell line, the GI50 is 1.01 µM, the TGI was determined as 19.6 µM and the CC50 was greater than 100 µM.

Take `O=S(=O)(Nc1cc(Cl)cc(Cl)c1)c1ccc(-c2cnc(C3CC3)o2)cc1`: in experiment [1], the growth at 10 µM is 36.9%.

As for `CN(c1ccc(Br)cc1)S(=O)(=O)c1ccc(-c2cnc(C3CC3)o2)cc1`, in experiment [1], the growth at 10 µM worked out at 31.4%. For the same compound, the GI50 in experiment [2] was found to be 3.92 µM.

Take `O=S(=O)(Nc1ccc2c(c1)OC(F)(F)O2)c1ccc(-c2cnc(C3CC3)o2)cc1`: in experiment [1], the growth at 10 µM came to 41.7%.

With `Cc1ccc(NS(=O)(=O)c2ccc(-c3cnc(C4CC4)o3)cc2)cc1`, in experiment [1], the growth at 10 µM worked out at 33.1%.

Turning to `CN(c1ccc(F)cc1)S(=O)(=O)c1ccc(-c2cnc(C3CC3)o2)cc1`, the growth at 10 µM in experiment [1] was 31.8%. For the same compound, the GI50 in experiment [2] amounted to 1.18 µM.

Take `O=S(=O)(Nc1ccc(I)cc1F)c1ccc(-c2cnc(C3CC3)o2)cc1`: the growth at 10 µM in experiment [1] came to 49.8%.

Consider `O=S(=O)(Nc1ccc(Cl)cc1Cl)c1ccc(-c2cnc(C3CC3)o2)cc1`, for which the growth at 10 µM in experiment [1] is 25%. In the experiment on leukaemia cell line, the GI50 worked out at 0.481 µM, the TGI was 74.5 µM and the CC50 was greater than 100 µM.

The record behind these values is ChEMBL document CHEMBL4814080, “Design, Synthesis, and Biological Evaluation of Novel 1,3-Oxazole Sulfonamides as Tubulin Polymerization Inhibitors” (ACS Med Chem Lett, 2021).
